# Test results: US12173002B2, “PRMT5 inhibitors and methods of use” (SHANGHAI APEIRON THERAPEUTICS COMPANY LIMITED, priority 2022, dated 2024)
# Columns and labels:
# [1] = tested on: HCT-116 MTAP(−/−) deficient cells; test: Inhibitory activity on proliferation of HCT-116 MTAP(−/−) deficient cells (Cell-Titer Glo, 8 days); type: cell-based; conditions: Homo sapiens, HCT-116, 192 h, 8 days incubation
# Protocol: Test 1: Compound's inhibitory activity on proliferation of HCT-116 MTAP(−/−) deficient cells. P Materials and Cells: HCT-116 MTAP(−/−) deficient cells obtained from Kyinno Bio (China); RPMI-1640 medium, fetal bovine serum, and penicillin-streptomycin purchased from Thermo Fisher Scientific (America); 384-well plates from PerkinElmer (America); Cell-Titer Glo assay kit from Promega (America).
# Cell Culture: HCT116 MTAP(−/−) deficient cells were cultured in RPMI 1640 medium containing 10% fetal bovine serum and 1% penicillin-streptomycin at 37° C., 5% CO2. Only cells in logarithmic growth phase were used for experiments.
# (§1) Cell Proliferation Inhibition Assay: The compound's inhibitory activity on HCT-116 MTAP(−/−) deficient cells was assessed using the Cell-Titer Glo assay kit. Adjusting cell concentration, 40 μL was seeded into a 384-well plate and cultured overnight at 37° C., 5% CO2. Each well received 40 nL of the compound, achieving concentrations from 0 to 10,000 nM (starting concentration 10,000 nM, 3-fold dilution, 10 points), with 0.1% DMSO. The cell plate was incubated for 8 days at 37° C., 5% CO2. Cell-Titer Glo reagent (40 μL) was added to measure cell viability.
# [2] = tested on: HCT-116 MTAP wild-type cells; test: Inhibitory activity on proliferation of HCT-116 MTAP wild-type cells (Cell-Titer Glo, 8 days); type: cell-based; conditions: Homo sapiens, HCT-116, 192 h, 8 days incubation
# Protocol: Test 2: Compound's inhibitory activity on proliferation of HCT-116 MTAP wild-type cells.
# Materials and Cells: HCT-116 MTAP wild-type cells obtained from Kyinno Bio (China); RPMI-1640 medium, fetal bovine serum, and penicillin-streptomycin purchased from Thermo Fisher Scientific (America); 384-well plates from PerkinElmer (America); Cell-Titer Glo assay kit from Promega (America).
# Cell Culture: HCT116 MTAP wild-type cells were cultured in RPMI 1640 medium containing 10% fetal bovine serum and 1% penicillin-streptomycin at 37° C., 5% CO2. Only cells in logarithmic growth phase were used for experiments.
# as §1, with “MTAP wild-type” for “MTAP(−/−) deficient”
IC50 [1] [nM],IC50 [2] [µM],SMILES
52.9,1.92,"Nc1nc2ccc(C(=O)N(C3CC3)[C@@H]3COc4cc(Br)ccc43)cc2n2cncc12 (single isomer, unassigned) [Example 82]"
2640,4.7,"Nc1nc2ccc(C(=O)N(C3CC3)[C@H]3COc4cc(C(F)(F)F)ccc43)cc2n2cncc12 (single isomer, unassigned) [Example 83]"
9030,10.8,"Nc1nc2cnc(C(=O)N(C3CC3)[C@H]3COc4cc(C(F)(F)F)ccc43)cc2n2cncc12 (single isomer, unassigned) [Example 87]"
24.1,1.85,"Nc1nc2cnc(C(=O)N(C3CC3)[C@@H]3COc4cc(C(F)(F)F)ccc43)cc2n2cncc12 (single isomer, unassigned) [Example 88]"
> 3000,> 10,"CN(C(=O)c1ccc2nc(N)c3cncn3c2c1)[C@H]1COc2nc(C(F)(F)F)ccc21 (single isomer, unassigned) [Example 89]"
36.4,> 10,"CN(C(=O)c1ccc2nc(N)c3cncn3c2c1)[C@@H]1COc2nc(C(F)(F)F)ccc21 (single isomer, unassigned) [Example 90]"
2180,> 20,"N#Cc1ccc2c(c1)OC[C@@H]2N(C(=O)c1ccc2nc(N)c3cncn3c2c1)C1CC1 (single isomer, unassigned) [Example 91]"
46.6,4.75,"N#Cc1ccc2c(c1)OC[C@H]2N(C(=O)c1ccc2nc(N)c3cncn3c2c1)C1CC1 (single isomer, unassigned) [Example 92]"
931,6.26,"CN(C(=O)c1ccc2nc(N)c3cncn3c2c1)[C@H]1COc2cc(S(F)(F)(F)(F)F)ccc21 (single isomer, unassigned) [Example 103]"
29.6,6.57,"CN(C(=O)c1cc2c(cc1F)nc(N)c1cncn12)[C@@H]1COc2cc(-c3cnn(C)c3)ccc21 [Example 34, (S)-4-amino-7-fluoro-N-methyl-N-(6-(1-methyl-1H-pyrazol-4-yl)-2,3-dihydrobenzofuran-3-yl)imidazo[1,5-a] quinoxaline-8-carboxamide]"
22.4,2.99,"CN(C(=O)c1ccc2nc(N)c3cncn3c2c1)C1CSc2cc(C(F)(F)F)ccc21 (centres unmarked) [Example 43, 4-amino-N-methyl-N-(6-(trifluoromethyl)-2,3-dihydrobenzo[b]thiophen-3-yl)imidazo [1,5-a]quinoxaline-8-carboxamide]"
310,> 10,"CN(C(=O)c1ccc2nc(N)c3cncn3c2c1)C1CCOCc2cc(C(F)(F)F)ccc21 (centres unmarked) [Example 44, 4-amino-N-methyl-N-(8-(trifluoromethyl)-1,3,4,5-tetrahydrobenzo[c]oxepin-5-yl) imidazo[1,5-a] quinoxaline-8-carboxamide]"
54,3.89,"CN(C(=O)c1ccc2nc(N)c3cncn3c2c1)[C@@H]1COc2cc(Cl)ccc21 [Example 70, (S)-4-amino-N-(6-chloro-2,3-dihydrobenzofuran-3-yl)-N-methylimidazo[1,5-a]quinoxaline-8-carboxamide]"
148,5.99,"Nc1nc2ccc(C(=O)N(C3CC3)C3COc4cc(Br)ccc43)cc2n2cncc12 (centres unmarked) [Example 74, 4-amino-N-(6-bromo-2,3-dihydrobenzofuran-3-yl)-N-cyclopro-pylimidazo[1,5-a] quinoxaline-8-carboxamide]"
7.1,2.07,"[2H]c1ncc2c(N)nc3ccc(C(=O)N(C)[C@@H]4COc5cc(C(F)(F)F)ccc54)cc3n12 [Example 78, (S)-4-amino-N-methyl-N-(6-(trifluoromethyl)-2,3-dihydrobenzofuran-3-yl)imidazo[1,5-a]quinoxaline-8-carboxamide-1-d]"
5.6,1.3,"[2H]c1ncn2c1c(N)nc1ccc(C(=O)N(C)[C@@H]3COc4cc(C(F)(F)F)ccc43)cc12 [Example 79, (S)-4-amino-N-methyl-N-(6-(trifluoromethyl)-2,3-dihydrobenzo-furan-3-yl)imidazo [1,5-a]quinoxaline-8-carboxamide-3-d]"
1790,2.36,"Nc1nc2ccc(C(=O)N(C3CC3)[C@H]3COc4cc(Br)ccc43)cc2n2cncc12 [Example 81, (R)-4-amino-N-(6-bromo-2,3-dihydrobenzofuran-3-yl)-N-cyclopropylimidazo[1,5-a]quinoxaline-8-carboxamide]"
66.1,2.19,"C[C@@H]1OC[C@@H](N(C)C(=O)c2ccc3nc(N)c4cncn4c3c2)c2ccc(C(F)(F)F)cc21 [Example 105, 4-amino-N-methyl-N-((1S,4S)-1-methyl-7-(trifluoromethyl)isoch-roman-4-yl)imidazo [1,5-a]quinoxaline-8-carboxamide]"
88.1,> 10,"CN(C(=O)c1cc2c(cc1F)nc(N)c1cncn12)[C@@H]1CCOc2cc(-c3cnn(C(F)(F)F)c3)ccc21 [Example 113, (R)-4-amino-7-fluoro-N-methyl-N-(7-(1-(trifluoromethyl)-1H-pyrazol-4-yl)chroman-4-yl) imidazo[1,5-a] quinoxaline-8-carboxamide]"
71.4,> 10,"CN(C(=O)c1ccc2nc(N)c3cncn3c2c1)[C@@H]1CSc2cc(S(=O)(=O)C3CC3)ccc21 [Example 133, (S)-4-amino-N-(6-(cyclopropylsulfonyl)-2,3-dihydrobenzo[b]thiophen-3-yl)-N-methylimidazo[1,5-a] quinoxaline-8-carboxamide]"

SMILES,IC50 [1] [nM],IC50 [2] [µM]
"CN(C(=O)c1ccc2nc(N)c3cncn3c2c1)[C@H]1COCc2ccc(C(F)(F)F)cc21 (single isomer, unassigned) [Example 93]",> 3000,> 10
"CN(C(=O)c1ccc2nc(N)c3cncn3c2c1)[C@@H]1COCc2ccc(C(F)(F)F)cc21 (single isomer, unassigned) [Example 94]",80.8,5.17
"CN(C(=O)c1ccc2nc(N)c3cncn3c2c1)C1COCc2ccc(C(F)(F)F)cc21 (centres unmarked) [Example 8, 4-amino-N-methyl-N-(6-(trifluoromethyl)isochroman-4-yl) imidazo[1,5-a] quinoxaline-8-carboxamide]",106,6.48
"CN(C(=O)c1cc2c(cc1C#N)nc(N)c1cncn12)[C@@H]1COc2cc(C(F)(F)F)ccc21 [Example 14, (S)-4-amino-7-cyano-N-methyl-N-(6-(trifluoromethyl)-2,3-dihydrobenzofuran-3-yl)imidazo[1,5-a] quinoxaline-8-carboxamide]",14.7,1.28
"CN(C(=O)c1cc2c(cc1Cl)nc(N)c1cncn12)[C@@H]1COc2cc(C(F)(F)F)ccc21 [Example 27, (S)-4-amino-7-chloro-N-methyl-N-(6-(trifluoromethyl)-2,3-dihydrobenzofuran-3-yl)imidazo[1,5-a]quinoxaline-8-carboxamide]",4.4,0.842
"CN(C(=O)c1cc2c(cc1F)nc(N)c1cncn12)[C@@H]1COc2cc(S(C)(=O)=O)ccc21 [Example 38, (S)-4-amino-7-fluoro-N-methyl-N-(6-(methylsulfonyl)-2,3-dihydrobenzofuran-3-yl)imidazo[1,5-a] quinoxaline-8-carboxamide]",30,4.06
"Cc1ncc(-c2ccc3c(c2)OCC3N(C(=O)c2ccc3nc(N)c4cncn4c3c2)C2CC2)cn1 (centres unmarked) [Example 72, 4-amino-N-cyclopropyl-N-(6-(2-methylpyrimidin-5-yl)-2,3-dihydrobenzofuran-3-yl)imidazo[1,5-a]quinoxaline-8-carboxamide]",117,> 20
"CN(C(=O)c1cc2c(cc1F)nc(N)c1cncn12)[C@H]1COc2cc(C(F)(F)F)ccc21 [Example 120, (R)-4-amino-7-fluoro-N-methyl-N-(6-(trifluoromethyl)-2,3-dihydrobenzofuran-3-yl)imidazo[1,5-a]quinoxaline-8-carboxamide]",900,> 10
